Measured values from patent US9695155B2, “Herbicidal substituted pyrimidinyloxy benzene compounds” (E. I. DU PONT DE NEMOURS AND COMPANY, priority 2013, dated 2017).

Columns and labels:
[1] = tested on: barnyardgrass; assay: Test A preemergence; assay type: in vivo, Echinochloa crus-galli; settings: 0 to 100 scale, 0 no effect, 100 complete control, approx. 10 days
Summary of the method: (§1)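 Scoring: eye-based comparison with untreated controls, 0 for no effect through 100 for complete control, at about day 10. Treatments: directed soil spray preemergence; foliar spray postemergence on 2–10 cm plants at the one- to two-leaf stage. Medium: loam soil with sand.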

[2] = tested on: kochia; assay: Test A preemergence; assay type: in vivo, Kochia scoparia; settings: 0 to 100 scale, 0 no effect, 100 complete control, approx. 10 days
Source text: (§2) Seeds of plant species selected from barnyardgrass (Echinochloa crus-galli), kochia (Kochia scoparia), ragweed (common ragweed, Ambrosia elatior), Italian ryegrass (Lolium multiflorum), large (Lg) crabgrass (Digitaria sanguinalis), giant foxtail (Setaria faberii), morningglory (Ipomoea spp.), pigweed (Amaranthus retroflexus), velvetleaf (Abutilon theophrasti), wheat (Triticum aestivum), and corn (Zea mays) were planted into a blend of loam soil and sand and treated preemergence with a directed soil spray using test chemicals formulated in a non-phytotoxic solvent mixture which included a surfactant.
(§3) At the same time, plants selected from these crop and weed species and also blackgrass (Alopecurus myosuroides), and galium (catchweed bedstraw, Galium aparine) were planted in pots containing the same blend of loam soil and sand and treated with postemergence applications of test chemicals formulated in the same manner. Plants ranged in height from 2 to 10 cm and were in the one- to two-leaf stage for the postemergence treatment. Treated plants and untreated controls were maintained in a greenhouse for approximately 10 days, after which time all treated plants were compared to untreated controls and visually evaluated for injury. Plant response ratings, summarized in Table A, are based on a 0 to 100 scale where 0 is no effect and 100 is complete control. A dash (-) response means no test result.

[3] = tested on: ragweed; assay: Test A preemergence; assay type: in vivo, Ambrosia elatior; settings: 0 to 100 scale, 0 no effect, 100 complete control, approx. 10 days
Source text: as §2, §3

[4] = tested on: Italian ryegrass; assay: Test A preemergence; assay type: in vivo, Lolium multiflorum; settings: 0 to 100 scale, 0 no effect, 100 complete control, approx. 10 days
Source text: as §2, §3

[5] = tested on: giant foxtail; assay: Test A preemergence; assay type: in vivo, Setaria faberii; settings: 0 to 100 scale, 0 no effect, 100 complete control, approx. 10 days
Summary of the method: as §1

[6] = tested on: pigweed; assay: Test A preemergence; assay type: in vivo, Amaranthus retroflexus; settings: 0 to 100 scale, 0 no effect, 100 complete control, approx. 10 days
Summary of the method: as §1

[7] = tested on: barnyardgrass; assay: Test A postemergence; assay type: in vivo, Echinochloa crus-galli; settings: 0 to 100 scale, 0 no effect, 100 complete control
Summary of the method: as §1

[8] = tested on: kochia; assay: Test A postemergence; assay type: in vivo, Kochia scoparia
Source text: as §2, §3

[9] = tested on: ragweed; assay: Test A postemergence; assay type: in vivo, Ambrosia elatior
Source text: as §2, §3

[10] = tested on: Italian ryegrass; assay: Test A postemergence; assay type: in vivo, Lolium multiflorum
Source text: as §2, §3

[11] = tested on: giant foxtail; assay: Test A postemergence; assay type: in vivo, Setaria faberii
Summary of the method: as §1

[12] = tested on: pigweed; assay: Test A postemergence; assay type: in vivo, Amaranthus retroflexus
Summary of the method: as §1

[13] = tested on: wheat; assay: Test A postemergence; assay type: in vivo, Triticum aestivum
Summary of the method: as §1

[14] = tested on: corn; assay: Test A postemergence; assay type: in vivo, Zea mays; settings: 0 to 100 scale, 0 no effect, 100 complete control
Summary of the method: as §1

[15] = tested on: blackgrass; assay: Test A postemergence; assay type: in vivo, Alopecurus myosuroides; settings: 0 to 100 scale, 0 no effect, 100 complete control
Source text: as §2, §3

[16] = tested on: galium; assay: Test A postemergence; assay type: in vivo, Galium aparine
Source text: as §2, §3

[17] = 500 g ai/ha, 0 to 100 scale where 0 is no effect and 100 is complete control
[18] = 1000 g ai/ha, 0 to 100 scale, 0 no effect, 100 complete control

SMILES | Barnyardgrass plant response rating ([1]; 1000 g ai/ha) | Kochia plant response rating ([2]; 1000 g ai/ha) | Ragweed plant response rating ([3]; 1000 g ai/ha) | Ryegrass, Italian plant response rating ([4]; 1000 g ai/ha) | Foxtail, Giant plant response rating ([5]; 1000 g ai/ha) | Pigweed plant response rating ([6]; 1000 g ai/ha) | Plant response rating, Barnyardgrass ([7]; 1000 g ai/ha) | Plant response rating, Kochia [8, 18] | Plant response rating, Ragweed [9, 18] | Plant response rating, Ryegrass, Italian [10, 18] | Plant response rating, Foxtail, Giant [11, 18] | Plant response rating, Pigweed [12, 18] | Plant response rating, Wheat [13, 18] | Plant response rating, Corn ([14]; 1000 g ai/ha) | Plant response rating, Blackgrass ([15]; 1000 g ai/ha) | Plant response rating, Galium [16, 18] | further results
Oc1cccc(Oc2ncc(Cl)cn2)c1-n1cc(Br)cn1 [Compound 68] | – | – | – | – | – | – | – | – | – | – | – | – | – | – | – | – | Barnyardgrass plant response rating ([1]; 500 g ai/ha): 0; Kochia plant response rating ([2]; 500 g ai/ha): 0; Ragweed plant response rating ([3]; 500 g ai/ha): 0; Ryegrass, Italian plant response rating ([4]; 500 g ai/ha): 0; Foxtail, Giant plant response rating ([5]; 500 g ai/ha): 0; Pigweed plant response rating ([6]; 500 g ai/ha): 30; Plant response rating, Barnyardgrass ([7]; 500 g ai/ha): 0; Plant response rating, Kochia [8, 17]: 0; Plant response rating, Ragweed [9, 17]: 0; Plant response rating, Ryegrass, Italian [10, 17]: 0; Plant response rating, Foxtail, Giant [11, 17]: 0; Plant response rating, Pigweed [12, 17]: 0; Plant response rating, Wheat [13, 17]: 0; Plant response rating, Corn ([14]; 500 g ai/ha): 0; Plant response rating, Blackgrass ([15]; 500 g ai/ha): 0; Plant response rating, Galium [16, 17]: 0
CN(C)C(=O)c1cccc(Oc2ncc(Cl)cn2)c1-n1cc(C(F)(F)F)cn1 [Compound 255] | 10 | 70 | 20 | 20 | 10 | 60 | 10 | 50 | 10 | 0 | 10 | 30 | 0 | 0 | 10 | 10 | –
CNC(=O)c1cccc(Oc2ncc(Cl)cn2)c1-n1cc(C(F)(F)F)cn1 [Compound 256] | 20 | 70 | 30 | 20 | 30 | 30 | 10 | 30 | 10 | 0 | 10 | 10 | 0 | 0 | 10 | 30 | –
CCN(C)C(=O)c1cccc(Oc2ncc(Cl)cn2)c1-n1cc(C(F)(F)F)cn1 [Compound 262] | 0 | 20 | 0 | 0 | 50 | 10 | 10 | 30 | 10 | 0 | 10 | 50 | 0 | 0 | 10 | 10 | –
